According to ChEMBL document CHEMBL1125988, “Restricted rotation analogs of decarboxylated S-adenosylmethionine as inhibitors of polyamine biosynthesis” (Bioorg Med Chem Lett, 1991):

How the values were obtained:
L1210 [1] = test: Tested for inhibitory activity on cultured L1210 cells; format: functional, cell-based; conditions: Mus musculus
L1210 [2] = test: Ornithine decarboxylase activity was measured by the enzymatic decarboxylation of L-[14C-COOH]-ornithine as nmol CO2 produced per hour per mg of protein in L1210 cells; format: functional, Mus musculus
L1210 [3] = test: S-adenosyl-methionine decarboxylase activity was measured by the enzymatic decarboxylation of L-[14C-COOH]-methionine as nmol CO2 produced per hour per mg of protein in L1210 cells; format: functional, Mus musculus
L1210 [4] = test: Compound was evaluated for % of growth control in cultured L1210 cells; format: functional, Mus musculus
L1210 [5] = test: Cellular polyamine (spermine) content was determined in L1210 cells.; format: functional, Mus musculus
L1210 [6] = test: Cellular polyamine (putrescine) content was determined in L1210 cells.; format: functional, Mus musculus
[7] = Lethal dose of compound towards active site probes for spermidine and spermine synthase in L1210 cultured cell assay,; format: toxicity, cell-based; conditions: mouse, L1210 cells; read-out: LD50 (the source's name)
L1210 [8] = test: Cellular polyamine (SPD) content was determined in L1210 cells.; format: functional, Mus musculus

Row | Structure (SMILES) | IC50 (L1210 [1]) [µM] | Activity (L1210 [2]) | Activity (L1210 [3]) | Growth (L1210 [4]) [%] | Cellular content (L1210 [5]) | Cellular content (L1210 [6]) | CC50 [7] [µM] | Cellular content (L1210 [8])
1 | Nc1ncnc2c1ncn2[C@@H]1O[C@H](CSC2CCNC2)[C@@H](O)[C@H]1O (stereo partly specified) | 100 | 2.98 (nM of CO2) hr-1 mg-1 | 367 (nM of CO2) hr-1 mg-1 | 46 | 1000 pM (10e6*cells)-1 | 37 pM (10e6*cells)-1 | 100 | 410 pM (10e6*cells)-1
2 | Br.C[S+](C[C@H]1O[C@@H](n2cnc3c(N)ncnc32)[C@H](O)[C@@H]1O)C1CCNC1.[Br-] (stereo partly specified) | 1000 | 6.16 (nM of CO2) hr-1 mg-1 | 500 (nM of CO2) hr-1 mg-1 | 58 | 1290 pM (10e6*cells)-1 | 170 pM (10e6*cells)-1 | 1000 | 208 pM (10e6*cells)-1
